Entries after “also recorded” stand apart in the source; their conditions may differ.
Assays:
[1] = target: T1, TRDMT1 (Homo sapiens, UniProt O14717); assay: m^5C staining at TA-KR DNA damage sites in cells treated with YW-1842; assay type: cell-based
T1 construct: SCE WT cells were transfected with TA-KR and were cultured with 2.5 μM/L, compound YW-1842 or not for 6 hours; endogenous in cells; host or cells: SCE WT cells (U2OS-TRE type) transfected with TA-KR only
T1 sequence (O14717 1-391): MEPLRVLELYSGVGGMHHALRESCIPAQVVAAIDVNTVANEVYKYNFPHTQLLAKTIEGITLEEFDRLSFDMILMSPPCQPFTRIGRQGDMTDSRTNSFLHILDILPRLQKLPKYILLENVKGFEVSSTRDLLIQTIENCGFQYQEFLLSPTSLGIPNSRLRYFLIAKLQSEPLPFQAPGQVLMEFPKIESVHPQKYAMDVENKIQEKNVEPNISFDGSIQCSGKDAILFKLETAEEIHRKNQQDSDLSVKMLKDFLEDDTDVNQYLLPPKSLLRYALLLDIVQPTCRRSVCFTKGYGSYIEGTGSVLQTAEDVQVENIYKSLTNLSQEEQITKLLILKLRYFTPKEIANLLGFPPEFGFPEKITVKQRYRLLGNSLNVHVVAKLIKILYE
Protocol: FIGS. 6A-6E show TRDMT1 Inhibitors specifically sensitizes cells to DNA damage agents. (FIG. 6A) SCE WT cells were transfected with TA-KR and were cultured with 2.5 μM/L, compound YW-1842 or not for 6 hours, m^5C (n=3, 50 cells per replicated, Mean±SD) was stained and quantified. DR-GFP (FIG. 6B) or EJ5-GFP (FIG. 6C) cells were pre-treated with 2.5 μM/L, compound YW-1842 for 6 h or TRDMT1 siRNA for 48 h, or DMSO. Then the cells were transfected with NLS-I-SceI plasmid to induce DSB. The efficiency of HR (FIG. 6B) or NHEJ (FIG. 6C) was analyzed by flow-cytometry (n=3, Mean±SD). (FIG. 6D) After seeding, MCF-7, HCC1954, and HCC1937 cells were pre-treated with or without 2.5 μM/L compound YW-1842 for 6 h, then cultured with chemotherapy drugs (1 μM/L, Cisplatin; 1 μM/L ATRi AZ20; 10 μM/L, ATMi KU55933; 1 μM/L, PARPi Olaparib for 10 days. The survival rate of these cells was analyzed (n=3, Mean±SD). (FIG. 6E) TRDMT1 KO U2OS cells were transfected with GFP-TRDMT1^WT or GFP-TRDMT1^G155V with or without 2.5 μM/L, compound YW-1842, the survival rate of these cells after IR or Cisplatin was shown (n=3, Mean±SD).
The Olympus FV1000 confocal microscopy system (Cat. F10PRDMYR-1, Olympus) and FV1000 software were used for the acquisition of images. Cells were cultured in 35 mm glass-bottom dishes (MatTek, P35GC-1.5-14-C) before observation. Activation of KR in bulky cells was completed by exposing cells to a 15 W Sylvania cool white fluorescent bulb for 25 min in a stage UVP (Uvland, CA). The intensity was measured by ImageJ 1.52i software.
For m^5C staining using the heat method, the cells or tissues were fixed and permeabilized in a 35 mm glass-bottom dish using a standard protocol, incubated in buffer (10 mM Tris-HCl, 2 mM EDTA, pH=9) and steamed on a 95° C. heating block for 20 min to expose the antigen. The dish was cooled, washed 3 times with PBS and blocked using 5% BSA in 0.1% PBST for 0.5 h at room temperature. Primary antibody for m^5C (33D3, ab10805, Abcam) and secondary antibody were diluted in the same buffer (5% BSA in 0.1% PBST) and followed the standard IF protocol. […]

[2] = tested on: cancer cell lines (HST578, MBAMD231, HCC1937, HCC1954); assay: Cell survival (colony) assay with TRDMT1i alone, Example 19; assay type: cell-based
Protocol: FIGS. 14A-14C show TRDMT1i alone reduce cancer cell survival in a dose-dependent manner. (FIG. 14A) Survival rate of HR proficient (HR+) HST578 cancer cells with and without siBRCA1 and/or TRDMT1i YW-1842 at indicated dose. The survival rate of these cells was analyzed (n=3, Mean±SD). (FIG. 14B) Survival rate of MBAMD231 (HR+) and HCC1937 (HRD) cells. The survival rate of these cells was analyzed (n=3, Mean±SD). (FIG. 14C) Cell survival rate in different cancer cell lines via colony-forming assay with the treatment of Imatinib at indicated dose (n=3, mean+/−S.D.). Cell lines are listed in order with the expression level from SYCP2high to SYCP2low.
HCC1500, HCC1954, BT549, MCF7 and MDAMB468 were cultured in Roswell Park Memorial Institute (RPMI) 1640 Medium (Sigma, R8758) with 10% (vol/vol) fetal bovine serum (FBS, XY Cell Culture, FBS-500) at 37° C., 5% CO2. siBRCA1 (L-003461-00, Dharmacon) was transfected with Lipofectamine RNAiMax (Invitrogen; Carlsbad, CA, USA). PARPi Olaparib (AZD2281/Ku-0059436, Sellekchem, S1060) and Pol theta inhibitor Novobiocin (Sigma) were used.
Cells were seeded in each 6-cm dish and cultured as described above. They were treated with drugs with indicated dose in medium after seeding. After 7-10 days, colonies were fixed and stained with 0.3% crystal violet in methanol, and the number of colonies was counted manually.

For `COc1cc2nc(-n3cc(-c4ccc(S(C)(=O)=O)cc4)cn3)nc(-c3ccsc3)c2cc1OC` [YW-1842, 6,7-dimethoxy-2-(4-(4-(methylsulfonyl)phenyl)-1H-pyrazol-1-yl)-4-(thiophen-3-yl)quinazoline], the “TRDMT1 inhibition (overall statement)” value [1] was “potent inhibitor for TRDMT1; also recorded: high inhibitory activity”, the “inhibiting TRDMT1 recruitment, m^5C formation and HR efficiency at DNA damage sites” value [1] was “performed well” and the “m^5C inhibitory activity” value ([1]; 2.5 μM/L, 6 hours, cells transfected with TA-KR) was “almost equivalent to TRDMT1 depletion”. For the same compound, the “cell killing of HCC1954” value ([2]; HCC1954 (HRD, high SYCP2)) was “efficiently killed HCC1954”, the “cell survival, TRDMT1i alone” value ([2]; HR-proficient HST578 cells) was “kills HR-proficient cancer cells HST578 in a dose-dependent manner” and the “TRDMT1i sensitivity with BRCA1 knockdown” value ([2]; HST578 cells with siBRCA1) was “significantly increased”. For the same compound, the “cell killing across cancer cell lines by SYCP2 level and HR status” value ([2]; cell lines ordered SYCP2high to SYCP2low) was “killed SYCP2-high cancer cell lines and HR deficient cells the most efficiently”.

Reference: patent US12496302B2, “Compositions and methods for the treatment and diagnosis of cancer” (The General Hospital Corporation, priority 2020, dated 2025)
